Reference: patent US11000458B2, “Method and product for producing formulations containing ceramide” (Evonik Operations GmbH, priority 2017, dated 2021)

Experiment: Minimum required dissolution temperature of ceramide NP in oils
Assay type: physicochemical
Method: The minimum required dissolution temperature for 0.1 g of ceramide NP in 20 g of various oils was determined.

required dissolution temperatures (0.1 g of ceramide NP in 20 g Caprylic/Capric Triglycerides (TEGOSOFT ® CT)): 95 °C
required dissolution temperatures (0.1 g of ceramide NP in 20 g Ethylhexyl Stearate (TEGOSOFT ® OS)): 100 °C
required dissolution temperatures (0.1 g of ceramide NP in 20 g Persea gratissima (Avocado) oil): 100 °C
Substance: Ceramide NP
